How the values were obtained:
[1] = system: p53; test: Phosphorylation of p53 (p53S46P, p53S15P) in Env-elicited syncytia; type: cell-based; settings: 36 h coculture, SB203580, SB202190, SB202474 100 nM, LY294002 1 µM, PD98059 5 µM, anti-sense HIPK2 100 nM, Fig. 10
Description: Figures 10A and 10C. […] HeLa Env and HeLa CD4 cells were cocultured for 36h in the presence of the indicated agents followed by the determination of the frequency of p53S46P+ syncytia. Results are means of three independent experiments.
Figure 10B. […] Syncytia were generated as in figure 10A, after transfection with anti-sense HIPK2 phosphorothioate oligonucleotides (100 nM) or a scrambled control olignonucleotide (Co.), followed by immunofluorescence detection of p53S46P.
(§1) Transfection with pcDNA3.1 vector only, or p38 DN plasmids (gift by Roger Davis), or HPLC-purified anti-sense HIPK2 phosphorothioate oligonucleotides (100 nM) and control were transfected with Lipofectamine (Invitrogen) into HeLa CD4 cells, 24 h before co-culture with HeLa Env cells. Transfection with pcDNA3.1 vector only or a p53-responsive enhanced green fluorescent (GFP) plasmid (kind gift from Klas Wiman) was performed 24 hours before coculture of HeLa CD4 and HeLa Env cells. The frequency of GFP-expressing cells was assessed by cytofluorometry, on a FACS Vantage (Becton Dickinson) equipped with a 100 µm nozzle, allowing for the analysis of relatively large cells.

[2] = system: Env-elicited syncytia; type: cell-based
Description: (§2) HeLa/U937 cell co-cultures were performed at different ratios (6). U937 or Jurkat cells were cultured with recombinant gp120 protein (500 ng/ml).

[3] = system: p53; type: cell-based; settings: syncytia, 24 hours; SN50 20 µM, roscovitin 1 µM; Fig. 3B
Description: The frequency of GFP-expressing cells was assessed by cytofluorometry, on a FACS Vantage (Becton Dickinson) equipped with a 100 µm nozzle, allowing for the analysis of relatively large cells.
as §1

[4] = system: Env-induced syncytia; settings: reference (5); cited from earlier work
[5] = system: Env-elicited syncytia; test: Karyogamy and cyclin B accumulation in Env-elicited syncytia; type: cell-based; settings: SN50 20 µM, roscovitin 1 µM; Fig. 3D
Description: Figure 3D. […] Syncytia were treated with various drugs as in B, and the frequency of karyogamic cells was scored.
as §2

## COc1cccc(-c2cc(=O)c3ccccc3o2)c1N [PD98059]
[1]; 500 mM caffeine
  frequency of p53S46P+ syncytia (p53S46P): failed to affect

## Oc1ccc(-c2nc(-c3ccc(F)cc3)c(-c3ccncc3)[nH]2)cc1 [SB202190]
[1]; 500 mM caffeine
  frequency of p53S46P+ syncytia (p53S46P): strongly reduced

## CCc1nc(-c2ccc(OC)cc2)[nH]c1-c1ccncc1 [SB202474]
[1]; 500 mM caffeine
  frequency of p53S46P+ syncytia (p53S46P): not

## Cn1c(=O)c2c(ncn2C)n(C)c1=O [caffeine]
[1]; caffeine
  frequency of p53S46P+ syncytia (p53S46P): no effect
[2]
  propensity of syncytia to undergo apoptosis: did not reduce

## CC[C@H](CO)Nc1nc(NCc2ccccc2)c2ncn(C(C)C)c2n1 [roscovitine]
[3]
  p53-dependent transcription (p53-inducible GFP construct): inhibited
[4]
  syncytium-dependent cell death: blocked
[5]
  emergence of karyogamic syncytia (karyogamy): inhibiting

Reference: patent EP1542016A1, “PUMA, phosphorylated p53 and p38 map kinase as markers for HIV-1-induced apoptosis in circulating T cells of infected patient” (Institut Gustave Roussy, priority 2003, dated 2005)
